{"source": "ChEMBL document CHEMBL5465560", "about": "“Selectivity Literature for EUbOPEN Chemogenomic Library” (2024)", "key": {"[1]": {"biological_target": "Serine/threonine-protein kinase SIK2 (Homo sapiens) (UniProt Q9H0K1)", "sequence (Q9H0K1 whole entry, looked up)": "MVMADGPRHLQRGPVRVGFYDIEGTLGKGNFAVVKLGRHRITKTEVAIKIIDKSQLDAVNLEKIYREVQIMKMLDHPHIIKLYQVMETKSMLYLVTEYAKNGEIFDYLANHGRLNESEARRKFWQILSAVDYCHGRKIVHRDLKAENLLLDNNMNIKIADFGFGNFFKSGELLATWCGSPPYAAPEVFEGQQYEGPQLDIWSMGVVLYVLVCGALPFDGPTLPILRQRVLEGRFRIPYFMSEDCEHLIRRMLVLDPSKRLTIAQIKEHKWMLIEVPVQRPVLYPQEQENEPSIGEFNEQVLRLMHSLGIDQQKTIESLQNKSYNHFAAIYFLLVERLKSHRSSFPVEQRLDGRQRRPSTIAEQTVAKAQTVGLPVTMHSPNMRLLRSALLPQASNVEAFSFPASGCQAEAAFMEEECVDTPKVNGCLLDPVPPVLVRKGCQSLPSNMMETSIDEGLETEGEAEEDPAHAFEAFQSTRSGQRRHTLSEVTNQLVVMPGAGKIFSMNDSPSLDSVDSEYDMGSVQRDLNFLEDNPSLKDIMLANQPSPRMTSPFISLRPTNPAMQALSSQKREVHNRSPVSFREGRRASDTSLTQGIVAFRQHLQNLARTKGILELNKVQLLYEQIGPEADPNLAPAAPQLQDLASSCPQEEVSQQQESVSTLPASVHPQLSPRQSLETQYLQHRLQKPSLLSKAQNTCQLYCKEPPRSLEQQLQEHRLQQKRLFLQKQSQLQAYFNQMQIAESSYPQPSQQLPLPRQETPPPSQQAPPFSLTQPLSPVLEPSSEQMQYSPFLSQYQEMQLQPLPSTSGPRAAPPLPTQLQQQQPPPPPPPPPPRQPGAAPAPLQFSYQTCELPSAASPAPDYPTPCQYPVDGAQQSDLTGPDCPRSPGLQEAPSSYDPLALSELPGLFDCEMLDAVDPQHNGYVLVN", "experiment": "Selectivity interaction (KinomeScan (DiscoverX)) EUB0000229b SIK2", "conditions": "at 10 µM"}, "[2]": {"biological_target": "DNA (cytosine-5)-methyltransferase 1 (Homo sapiens) (UniProt P26358)", "conditions": "at 10 µM"}, "[3]": {"biological_target": "T1, Mitogen-activated protein kinase 15 (Homo sapiens) (UniProt Q8TD08)", "T1 sequence (whole entry)": "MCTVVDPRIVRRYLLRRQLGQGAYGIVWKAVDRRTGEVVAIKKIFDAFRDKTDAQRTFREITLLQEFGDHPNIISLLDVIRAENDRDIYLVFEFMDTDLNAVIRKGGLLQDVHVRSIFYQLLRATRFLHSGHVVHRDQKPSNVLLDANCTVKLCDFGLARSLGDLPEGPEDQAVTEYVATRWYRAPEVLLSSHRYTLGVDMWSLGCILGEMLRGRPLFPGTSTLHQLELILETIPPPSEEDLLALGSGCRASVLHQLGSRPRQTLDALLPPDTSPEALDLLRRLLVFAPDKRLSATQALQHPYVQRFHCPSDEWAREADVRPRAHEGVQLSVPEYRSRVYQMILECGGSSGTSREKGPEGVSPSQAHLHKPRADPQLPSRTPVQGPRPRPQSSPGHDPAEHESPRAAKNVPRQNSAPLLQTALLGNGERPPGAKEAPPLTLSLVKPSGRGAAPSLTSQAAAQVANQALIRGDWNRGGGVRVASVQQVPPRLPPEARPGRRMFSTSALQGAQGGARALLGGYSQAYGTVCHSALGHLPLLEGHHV", "experiment": "Selectivity interaction (KinomeScan (DiscoverX)) EUB0000045b MAPK15"}, "[4]": {"biological_target": "Activin receptor type-1-like (Homo sapiens) (UniProt P37023)", "sequence (P37023 whole entry)": "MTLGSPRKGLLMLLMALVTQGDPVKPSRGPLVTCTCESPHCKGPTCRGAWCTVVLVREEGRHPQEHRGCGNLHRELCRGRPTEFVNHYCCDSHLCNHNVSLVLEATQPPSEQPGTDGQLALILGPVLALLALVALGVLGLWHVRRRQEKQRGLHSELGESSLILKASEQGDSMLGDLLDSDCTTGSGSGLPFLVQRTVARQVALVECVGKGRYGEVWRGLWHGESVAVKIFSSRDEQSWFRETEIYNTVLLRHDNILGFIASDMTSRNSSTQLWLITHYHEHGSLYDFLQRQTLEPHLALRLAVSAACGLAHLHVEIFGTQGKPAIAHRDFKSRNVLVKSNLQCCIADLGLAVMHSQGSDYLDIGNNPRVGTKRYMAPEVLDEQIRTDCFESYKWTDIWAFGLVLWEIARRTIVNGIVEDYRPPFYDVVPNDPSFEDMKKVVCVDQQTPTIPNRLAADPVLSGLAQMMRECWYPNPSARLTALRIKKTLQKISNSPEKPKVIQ", "experiment": "Selectivity interaction (KinomeScan (DiscoverX)) EUB0000666a ACVRL1", "conditions": "at 10 µM"}, "[5]": {"biological_target": "Serine/threonine-protein kinase 10 (Homo sapiens) (UniProt O94804)", "sequence (O94804 whole entry, looked up)": "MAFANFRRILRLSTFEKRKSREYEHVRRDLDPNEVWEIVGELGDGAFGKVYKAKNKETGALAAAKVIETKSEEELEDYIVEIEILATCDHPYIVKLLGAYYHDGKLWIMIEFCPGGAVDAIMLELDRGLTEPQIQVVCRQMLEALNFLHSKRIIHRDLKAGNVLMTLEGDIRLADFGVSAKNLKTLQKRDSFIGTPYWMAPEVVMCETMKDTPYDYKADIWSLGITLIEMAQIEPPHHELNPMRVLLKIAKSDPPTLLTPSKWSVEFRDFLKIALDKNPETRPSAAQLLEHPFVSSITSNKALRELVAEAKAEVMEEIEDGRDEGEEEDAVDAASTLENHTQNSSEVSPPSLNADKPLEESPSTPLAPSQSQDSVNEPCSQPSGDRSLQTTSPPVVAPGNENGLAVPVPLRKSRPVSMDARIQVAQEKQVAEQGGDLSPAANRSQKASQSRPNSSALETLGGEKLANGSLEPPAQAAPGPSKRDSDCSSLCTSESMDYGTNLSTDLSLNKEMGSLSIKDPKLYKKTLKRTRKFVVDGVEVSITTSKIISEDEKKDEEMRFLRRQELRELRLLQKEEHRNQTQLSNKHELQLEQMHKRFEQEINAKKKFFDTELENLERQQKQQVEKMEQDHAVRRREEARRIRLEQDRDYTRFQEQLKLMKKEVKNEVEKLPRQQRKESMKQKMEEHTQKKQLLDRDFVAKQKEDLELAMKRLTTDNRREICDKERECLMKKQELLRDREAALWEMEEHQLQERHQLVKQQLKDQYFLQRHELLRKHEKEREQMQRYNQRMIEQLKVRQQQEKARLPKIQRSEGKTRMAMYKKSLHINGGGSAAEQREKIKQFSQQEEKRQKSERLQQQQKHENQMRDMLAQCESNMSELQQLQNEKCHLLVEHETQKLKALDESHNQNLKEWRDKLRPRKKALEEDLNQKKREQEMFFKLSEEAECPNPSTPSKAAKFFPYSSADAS", "experiment": "Selectivity interaction (ActivX KiNativ screen (ex vivo kinase selectivity in human PBMCs)) EUB0001619a STK10", "type": "cell-based", "conditions": "PBMC, at 1 µM"}, "[6]": {"biological_target": "MAP kinase-activated protein kinase 2 (Homo sapiens, UniProt P49137)", "sequence (P49137 whole entry, looked up)": "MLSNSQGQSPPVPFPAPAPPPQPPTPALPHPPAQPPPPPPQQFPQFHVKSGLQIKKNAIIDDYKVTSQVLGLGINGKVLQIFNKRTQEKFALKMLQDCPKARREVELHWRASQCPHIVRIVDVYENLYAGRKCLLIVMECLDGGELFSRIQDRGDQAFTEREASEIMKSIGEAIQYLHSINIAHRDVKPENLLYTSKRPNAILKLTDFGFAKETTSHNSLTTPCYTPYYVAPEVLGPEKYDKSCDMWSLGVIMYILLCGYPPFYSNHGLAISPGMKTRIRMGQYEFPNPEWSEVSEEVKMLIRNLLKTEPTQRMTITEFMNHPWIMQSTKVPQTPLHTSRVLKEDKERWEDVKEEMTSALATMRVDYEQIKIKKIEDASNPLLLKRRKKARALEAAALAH", "experiment": "Selectivity interaction (SelectScreen profiling (Invitrogen)) EUB0000607a MAPKAPK2", "conditions": "at 2 µM"}, "[7]": {"biological_target": "cAMP-dependent protein kinase catalytic subunit alpha (Homo sapiens, UniProt P17612)", "experiment": "Selectivity interaction (KinomeScan (DiscoverX)) EUB0000618a PRKACA", "conditions": "at 10 µM"}, "[8]": {"biological_target": "T2, Dual specificity mitogen-activated protein kinase kinase 6 (Homo sapiens) (UniProt P52564)", "T2 sequence (whole entry)": "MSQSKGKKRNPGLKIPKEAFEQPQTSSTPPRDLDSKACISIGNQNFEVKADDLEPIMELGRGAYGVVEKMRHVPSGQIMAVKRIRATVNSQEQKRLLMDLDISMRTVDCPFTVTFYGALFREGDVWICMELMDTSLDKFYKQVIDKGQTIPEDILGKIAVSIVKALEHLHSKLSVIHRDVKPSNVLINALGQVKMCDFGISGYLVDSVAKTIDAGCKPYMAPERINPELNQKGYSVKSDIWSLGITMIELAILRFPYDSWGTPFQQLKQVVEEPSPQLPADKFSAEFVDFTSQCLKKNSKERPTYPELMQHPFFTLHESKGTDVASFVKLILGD", "experiment": "Selectivity interaction (ActivX KiNativ screen (kinase selectivity in THP-1 cell lysates)) EUB0000639a MAP2K6", "type": "subcellular", "conditions": "lysate"}, "[9]": {"biological_target": "Serine/threonine-protein kinase PRP4 homolog (Homo sapiens) (UniProt Q13523)", "sequence (Q13523 whole entry)": "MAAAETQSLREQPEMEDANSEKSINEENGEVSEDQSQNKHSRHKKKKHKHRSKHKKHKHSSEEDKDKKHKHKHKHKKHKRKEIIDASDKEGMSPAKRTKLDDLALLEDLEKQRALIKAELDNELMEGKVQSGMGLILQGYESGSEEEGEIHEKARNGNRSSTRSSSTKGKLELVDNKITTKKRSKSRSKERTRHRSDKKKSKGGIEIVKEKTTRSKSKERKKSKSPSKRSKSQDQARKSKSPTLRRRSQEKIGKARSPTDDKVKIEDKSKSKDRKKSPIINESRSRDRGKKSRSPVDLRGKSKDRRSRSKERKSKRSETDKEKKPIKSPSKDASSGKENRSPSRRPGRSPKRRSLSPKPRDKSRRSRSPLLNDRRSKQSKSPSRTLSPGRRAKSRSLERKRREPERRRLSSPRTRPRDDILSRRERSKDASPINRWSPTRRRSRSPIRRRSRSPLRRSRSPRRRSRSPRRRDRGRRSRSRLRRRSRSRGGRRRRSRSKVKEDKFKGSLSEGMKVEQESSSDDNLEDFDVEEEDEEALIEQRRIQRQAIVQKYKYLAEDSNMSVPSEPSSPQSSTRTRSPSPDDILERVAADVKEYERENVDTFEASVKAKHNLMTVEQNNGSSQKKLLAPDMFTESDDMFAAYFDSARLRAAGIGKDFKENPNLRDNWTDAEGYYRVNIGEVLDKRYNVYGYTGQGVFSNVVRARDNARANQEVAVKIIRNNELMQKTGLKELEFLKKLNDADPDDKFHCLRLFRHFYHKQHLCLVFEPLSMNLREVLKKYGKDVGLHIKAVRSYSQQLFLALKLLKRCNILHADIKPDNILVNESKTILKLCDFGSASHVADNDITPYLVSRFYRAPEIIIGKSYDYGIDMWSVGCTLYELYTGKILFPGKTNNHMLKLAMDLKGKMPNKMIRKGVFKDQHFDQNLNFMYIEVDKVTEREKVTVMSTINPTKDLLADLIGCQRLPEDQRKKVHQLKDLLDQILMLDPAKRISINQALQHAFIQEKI", "experiment": "Selectivity interaction (ActivX KiNativ screen (kinase selectivity in THP-1 cell lysates)) EUB0000639a PRPF4", "type": "subcellular", "conditions": "lysate, at 0.01 µM"}, "[10]": {"biological_target": "T3, Ephrin type-A receptor 3 (Homo sapiens) (UniProt P29320)", "T3 sequence (whole entry)": "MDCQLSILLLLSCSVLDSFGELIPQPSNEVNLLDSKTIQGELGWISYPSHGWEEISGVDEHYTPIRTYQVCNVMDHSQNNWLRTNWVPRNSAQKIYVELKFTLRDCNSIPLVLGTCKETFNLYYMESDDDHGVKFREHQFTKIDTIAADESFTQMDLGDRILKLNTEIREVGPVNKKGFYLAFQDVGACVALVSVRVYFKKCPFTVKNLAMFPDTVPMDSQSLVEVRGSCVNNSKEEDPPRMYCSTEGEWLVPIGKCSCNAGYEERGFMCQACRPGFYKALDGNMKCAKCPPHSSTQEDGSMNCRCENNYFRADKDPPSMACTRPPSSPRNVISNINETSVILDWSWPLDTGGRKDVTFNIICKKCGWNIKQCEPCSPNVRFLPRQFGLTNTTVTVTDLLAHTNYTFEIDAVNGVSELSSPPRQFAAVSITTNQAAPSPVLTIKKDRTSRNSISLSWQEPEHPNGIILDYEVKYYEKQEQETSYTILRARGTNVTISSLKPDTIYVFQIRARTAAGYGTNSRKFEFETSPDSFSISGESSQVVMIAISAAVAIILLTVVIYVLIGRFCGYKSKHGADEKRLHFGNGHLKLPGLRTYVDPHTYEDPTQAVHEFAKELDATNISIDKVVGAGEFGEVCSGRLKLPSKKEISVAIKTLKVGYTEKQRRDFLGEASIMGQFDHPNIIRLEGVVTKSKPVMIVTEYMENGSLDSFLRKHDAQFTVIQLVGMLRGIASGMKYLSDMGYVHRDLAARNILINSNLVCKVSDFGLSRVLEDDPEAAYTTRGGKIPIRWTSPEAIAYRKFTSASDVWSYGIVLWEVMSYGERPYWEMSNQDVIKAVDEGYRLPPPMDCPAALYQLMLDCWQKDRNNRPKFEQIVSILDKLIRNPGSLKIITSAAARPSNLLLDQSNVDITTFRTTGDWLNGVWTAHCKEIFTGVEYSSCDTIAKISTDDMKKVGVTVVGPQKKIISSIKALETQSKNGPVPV", "experiment": "Selectivity interaction (Kinase panel (Invitrogen)) EUB0000639a EPHA3", "conditions": "at 200 nM"}, "[11]": {"biological_target": "T4, Casein kinase I isoform alpha-like (Homo sapiens) (UniProt Q8N752)", "T4 sequence (whole entry)": "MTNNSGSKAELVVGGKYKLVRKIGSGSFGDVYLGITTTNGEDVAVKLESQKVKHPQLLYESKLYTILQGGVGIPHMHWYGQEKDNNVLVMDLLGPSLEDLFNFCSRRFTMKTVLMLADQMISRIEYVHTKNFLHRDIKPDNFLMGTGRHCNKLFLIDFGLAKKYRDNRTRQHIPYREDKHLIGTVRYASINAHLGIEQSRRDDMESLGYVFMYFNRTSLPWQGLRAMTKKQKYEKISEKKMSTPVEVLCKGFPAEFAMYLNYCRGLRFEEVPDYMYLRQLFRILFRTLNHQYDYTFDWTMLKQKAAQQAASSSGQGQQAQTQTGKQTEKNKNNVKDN", "experiment": "Selectivity interaction (KinomeScan (DiscoverX)) EUB0000092b CSNK1A1L", "conditions": "at 10 µM"}}}
{"compound": "COc1cc(N(C)c2ccnc3ccc(C(F)(F)F)cc23)cc(OC)c1OC", "values": [{"measurement": "% binding", "setting": "[1]", "value": 98, "unit": "%"}]}
{"compound": "CNCCN1CCC(c2cc(CN(C)C(=O)c3cccc(Oc4ccccc4)c3)ccn2)CC1", "values": [{"measurement": "% activity", "setting": "[2]", "value": "> 90", "unit": "%"}]}
{"compound": "C=CC(=O)Nc1cc(-n2c(=O)ccc3cnc4ccc(-c5ccc(NS(C)(=O)=O)cc5)cc4c32)ccc1C", "values": [{"measurement": "% of control", "setting": "[3]; at 1 µM", "value": 100, "unit": "%"}, {"measurement": "% of control", "setting": "[3]; at 10 µM", "value": 100, "unit": "%"}]}
{"compound": "O=C(NOC[C@H](O)CO)c1ccc(F)c(F)c1Nc1ccc(I)cc1F", "values": [{"measurement": "% of control", "setting": "[4]", "value": 100, "unit": "%"}]}
{"compound": "N#Cc1cccc(-c2c[nH]c3ncnc(N4CCOCC4)c23)c1", "values": [{"measurement": "% of inhibition", "setting": "[5]", "value": 77, "unit": "%"}]}
{"compound": "CNC(=O)Nc1ccc(-c2nc(N3CC4CCC(C3)O4)c3cnn(C4CCC5(CC4)OCCO5)c3n2)cc1", "values": [{"measurement": "% of inhibition", "setting": "[6]", "value": 4, "unit": "%"}]}
{"compound": "O[C@H]1CC[C@H](Nc2ncc3nc(Nc4c(F)cc(F)cc4F)n([C@H]4CCOC4)c3n2)CC1", "values": [{"measurement": "% of control", "setting": "[7]", "value": 100, "unit": "%"}]}
{"compound": "CC[C@@H]1[C@H](F)C(=O)N[C@@H]1COc1nccc2cc(C(N)=O)c(OC)cc12", "note": "[ZIMLOVISERTIB]", "values": [{"measurement": "% of inhibition", "setting": "[8]; at 0.01 µM", "value": 10.3, "unit": "%"}, {"measurement": "% of inhibition", "setting": "[8]; at 0.04 µM", "value": -4.9, "unit": "%"}, {"measurement": "% of inhibition", "setting": "[8]; at 0.2 µM", "value": -20.6, "unit": "%"}, {"measurement": "% of inhibition", "setting": "[8]; at 1 µM", "value": 17.5, "unit": "%"}, {"measurement": "% of inhibition", "setting": "[8]; at 5 µM", "value": 62.3, "unit": "%"}, {"measurement": "% of inhibition", "setting": "[9]", "value": 15.8, "unit": "%"}, {"measurement": "% of inhibition", "setting": "[10]", "value": 0.984, "unit": "%"}]}
{"compound": "CCC(=O)N1CCN(c2ccc(-n3c(=O)ccc4cnc5ccc(-c6cnc7ccccc7c6)cc5c43)cc2C(F)(F)F)CC1", "values": [{"measurement": "% of control", "setting": "[11]", "value": 81, "unit": "%"}]}
